According to PubChem BioAssay (NCI):
Several values for one entry are separate records, joined by “and”; a condition that tells them apart may be missing. Identical values can stand only once.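 Each compound was tested at five concentrations against cells in 96-well plates for 48 hours. GI50 = concentration required for 50% inhibition of growth. At the TGI there is no net growth.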

Key:
Experiment in all cases: inhibition of tumour cell growth, NCI panel, 48 h
[1] = system: NCI-H522 lung
[2] = system: TK-10 renal
[3] = system: LOX IMVI melanoma
[4] = system: HT29 colon
[5] = system: SW-620 colon
[6] = system: K-562 leukemia
[7] = system: U251 CNS
[8] = system: HCT-116 colon

SMILES | GI50 [1] [µM] | TGI [1] | GI50 [2] | TGI [2] | GI50 [3] | TGI [3] | GI50 [4] | TGI [4] | GI50 [5] [µM] | TGI [5] [µM] | GI50 [6] | TGI [6] [µM] | GI50 [7] [µM] | TGI [7] | GI50 [8] | TGI [8] [µM]
CN1CCN(Cc2ccc(-c3cc4ncnc(Nc5ccc(OCc6cccc(F)c6)c(Cl)c5)c4s3)o2)CC1 | 4.75 | 9.46 µM | 3.02 µM | 6.64 µM | 3.66 µM | 8.07 µM | 1.38 µM | 4.3 µM | 4.66 | 8.64 | 2.08 µM | 6.85 | 3.34 | 7.12 µM | 3.62 µM | 7.42
C=C1C(=O)O[C@@H]2C[C@@H]1CC[C@]1(C)O[C@H]1CC[C@@]1(C)O[C@@H]1CC[C@@]2(C)O | 19.1 | 46.2 µM | 39.4 µM | > 100 µM | 28.7 µM | 80.8 µM | 24.7 µM | 87.6 µM | 29.2 | > 100 | 19.5 µM | > 100 | 42.8 | > 100 µM | 23.1 µM | 65.9
CCNC(=O)C[C@@H]1N=C(c2ccc(Cl)cc2)c2cc(OC)ccc2-n2c(C)nnc21 | 2.08 | > 100 µM | 0.645 µM | > 53.8 µM | 0.844 µM | > 100 µM | 1.02 µM | > 100 µM | > 31 | > 100 | 4.18 µM | > 100 | > 67.8 | > 100 µM | 5.73 µM | > 100
CC(O)C1OC(O)C2OC(C)(C)OC12 (stereo not given) |  | > 100 µM |  | > 100 µM |  | > 100 µM |  | > 100 µM |  | > 100 |  | > 100 |  | > 100 µM |  | > 100
COc1ccc(-c2ccc(C3CC(c4ccc(O)cc4)=NN3)o2)c([N+](=O)[O-])c1 (stereo not given) | 39 | > 100 µM | 40.1 µM | > 100 µM |  |  | 40.1 µM | 97.6 µM | 37.3 | > 100 | 13.9 µM | 36.3 | 19 | > 100 µM | 20.1 µM | > 100
COC(=O)/C=C/c1cc(O)c2c(c1)C(C(=O)OC)C(c1ccc(O)c(O)c1)O2 (stereo not given) | 0.0286 | 3.45 µM and 0.379 µM | 5.24 µM and 1.27 µM | 67.5 µM and > 23.5 µM | 0.17 µM and 0.0633 µM | 36 µM and > 67.1 µM | 3.89 µM and 1.75 µM | > 57.6 µM and 24.1 µM | 0.108 | > 100 | < 0.0419 µM and 0.0462 µM | > 100 | 0.116 | 46.2 µM and 23.2 µM | 0.104 µM and 0.0405 µM | > 100
CC1=C(C)C(=O)c2c(c(C(=O)c3ccccc3)c3nc4ccccc4n3c2C)C1=O | > 100 | > 100 µM | 59.5 µM | > 100 µM | 69.9 µM | > 100 µM | > 100 µM | > 100 µM | > 100 | > 100 | > 100 µM | > 100 | 27.5 | 79.4 µM | 87.2 µM | > 100
CC(C)(C)[Si](C)(C)OCC1CCC(n2cnc3c(NC(=O)c4ccccc4)ncnc32)O1 (stereo not given) |  | 33.2 µM |  | 38.6 µM |  | 37.1 µM |  | 33.6 µM |  | 35 |  | 39.5 |  | 32.9 µM |  | 33.5
